In patent US20030104507A1, “Method for detection of ATP” (priority 2001, published 2003):

Tests used:
[1] = target: T1, LucPpy (Photinus pyralis, UniProt P08659); test: Stability of reagent composition with LucPpy and detergent (RT, pH 7.0); assay type: biochemical; conditions: for Average Relative Light Units / Percent of Luminescence Remaining: LucPpy
T1 construct: purchased Promega E170A
From the text: (§1) The detergents used for inhibition of endogenous ATPase activity in a sample also affect activity of luciferase. […] It is ultimately the extended stability of a reagent composition, comprising an ATPase inhibitor and a luciferase enzyme, which provides a composition useful for measuring ATP, in a sample or samples, over an extended period of time.
(§2) In this experiment, the stability of a reagent composition comprising wild type LucPpy was compared to the stability of a reagent composition comprising LucPpe2m146 at about 23° C. (room temperature). The various reagent compositions had varying detergent concentrations.
(§3) Two solutions were created as listed below. One contained the luciferase, luciferin, MgSO4, and buffer (reagent composition). The other solution contained media plus ATP (media solution).
(§4) 50 μg/ml enzyme (LucPpy is Promega catalog #E170A)
(§5) Detergent (at various concentrations, see table below)
(§6) For each reagent composition, all ingredients except the luciferase enzyme were assembled; the enzyme was then added immediately before the first luminescence reading was taken. Immediately after addition of enzyme to each reagent composition and for various timepoints thereafter, 100 μl aliquots of the reagent composition were added to wells of a 96-well microtitre luminometer plate in triplicate. To these were added 100 μl Media Solution containing the ATP. Luminescence was then immediately read on a Dynex MLX microtitreplate luminometer, 0.5 second reads per well. The average relative light unit values as well as the reaction half lives are listed below in Table I and the percent of original luminescence remaining at each timepoint is listed in Table J below. The timepoint at the top of the column indicates the time at which the first rlu measurement for the samples in that column was read. […] Times listed in Table I are the same for Table J. The values for sulfobetaine and for CTAB were generated on different days, they are presented with the control values generated in the same experiment.

[2] = test system: LucPpe2m146; test: Stability of reagent composition with LucPpe2m146 and detergent (RT, pH 7.0); assay type: biochemical, Photuris pennsylvanica
From the text: as §1, §2, §3, §4, §5, §6

CCCCCCCCCCCCOS(=O)(=O)[O-].[Na+] [SDS, Sodium dodecyl sulfate]
Half-life of Luminescence Activity ([1]; Common firefly luciferase (P. pyralis), conc. 0.050): no activity | Average Relative Light Units ([1]; 0.002%, 0.75 min (head r32)): 640.290 rlu | Percent of Luminescence Remaining ([1]; 0.002%, 0.75 min (times of Table I r32)): 100.00% | Average Relative Light Units ([1]; 0.002%, 38 min (head r32)): 190.860 rlu | Percent of Luminescence Remaining ([1]; 0.002%, 38 min (times of Table I r32)): 29.81% | Average Relative Light Units ([1]; 0.002%, 70 min (head r32)): 84.210 rlu | Percent of Luminescence Remaining ([1]; 0.002%, 70 min (times of Table I r32)): 13.15% | Average Relative Light Units ([1]; 0.002%, 94 min (head r32)): 47.210 rlu | Percent of Luminescence Remaining ([1]; 0.002%, 94 min (times of Table I r32)): 7.37% | Average Relative Light Units ([1]; 0.002%, 122 min (head r32)): 25.630 rlu | Percent of Luminescence Remaining ([1]; 0.002%, 122 min (times of Table I r32)): 4.0% | Average Relative Light Units ([1]; 0.01%, 0.75 min (head r18)): 0.175 rlu | Average Relative Light Units ([1]; 0.01%, 0.75 min (head r32)): 17.584 rlu | Percent of Luminescence Remaining ([1]; 0.01%, 0.75 min (times of Table I r18)): 100.00% | Average Relative Light Units ([1]; 0.01%, 10 min (head r18)): 0.016 rlu | Percent of Luminescence Remaining ([1]; 0.01%, 10 min (times of Table I r18)): 9.14% | Average Relative Light Units ([1]; 0.01%, 38 min (head r32)): 0.001 rlu | Average Relative Light Units ([1]; 0.05%, 0.75 min (head r5)): 0.007 rlu | Percent of Luminescence Remaining ([1]; 0.05%, 0.75 min (times of Table I r5)): 100.00% | Average Relative Light Units ([2]; LucPpe2m146, 0.002%, 1.0 min (head r67)): 24265.83 rlu | Percent of Luminescence Remaining ([2]; LucPpe2m146, 0.002%, 1.0 min (times of Table I r67)): 100.00% | Average Relative Light Units ([2]; LucPpe2m146, 0.002%, 34 min (head r67)): 24213.97 rlu | Percent of Luminescence Remaining ([2]; LucPpe2m146, 0.002%, 34 min (times of Table I r67)): 99.79% | Average Relative Light Units ([2]; LucPpe2m146, 0.002%, 65 min (head r67)): 24725.73 rlu | Percent of Luminescence Remaining ([2]; LucPpe2m146, 0.002%, 65 min (times of Table I r67)): 101.90% | Average Relative Light Units ([2]; LucPpe2m146, 0.002%, 115 min (head r67)): 22654.87 rlu | Percent of Luminescence Remaining ([2]; LucPpe2m146, 0.002%, 115 min (times of Table I r67)): 93.36% | Average Relative Light Units ([2]; LucPpe2m146, 0.002%, 175 min (head r67)): 23856.73 rlu | Percent of Luminescence Remaining ([2]; LucPpe2m146, 0.002%, 175 min (times of Table I r67)): 98.31% | Average Relative Light Units ([2]; LucPpe2m146, 0.002%, 238 min (head r67)): 23425.5 rlu | Percent of Luminescence Remaining ([2]; LucPpe2m146, 0.002%, 238 min (times of Table I r67)): 96.54% | Average Relative Light Units ([2]; LucPpe2m146, 0.002%, 286 min (head r67)): 23275.6 rlu | Percent of Luminescence Remaining ([2]; LucPpe2m146, 0.002%, 286 min (times of Table I r67)): 95.92% | Average Relative Light Units ([2]; LucPpe2m146, 0.01%, 1.0 min (head r54)): 24.46 rlu | Percent of Luminescence Remaining ([2]; LucPpe2m146, 0.01%, 1.0 min (times of Table I r54)): 100.00% | Average Relative Light Units ([2]; LucPpe2m146, 0.01%, 34 min (head r54)): 27.85 rlu | Percent of Luminescence Remaining ([2]; LucPpe2m146, 0.01%, 34 min (times of Table I r54)): 113.85% | Average Relative Light Units ([2]; LucPpe2m146, 0.01%, 65 min (head r54)): 10.77 rlu | Percent of Luminescence Remaining ([2]; LucPpe2m146, 0.01%, 65 min (times of Table I r54)): 44.02% | Average Relative Light Units ([2]; LucPpe2m146, 0.01%, 115 min (head r54)): 6.45 rlu | Percent of Luminescence Remaining ([2]; LucPpe2m146, 0.01%, 115 min (times of Table I r54)): 26.38% | Average Relative Light Units ([2]; LucPpe2m146, 0.01%, 175 min (head r54)): 2.02 rlu | Percent of Luminescence Remaining ([2]; LucPpe2m146, 0.01%, 175 min (times of Table I r54)): 8.25% | Average Relative Light Units ([2]; LucPpe2m146, 0.01%, 238 min (head r54)): 2.44 rlu | Percent of Luminescence Remaining ([2]; LucPpe2m146, 0.01%, 238 min (times of Table I r54)): 9.97% | Average Relative Light Units ([2]; LucPpe2m146, 0.01%, 286 min (head r54)): 0.62 rlu | Percent of Luminescence Remaining ([2]; LucPpe2m146, 0.01%, 286 min (times of Table I r54)): 2.53% | Average Relative Light Units ([2]; LucPpe2m146, 0.05%, 15 min (head r41)): 0.018 rlu | Percent of Luminescence Remaining ([2]; LucPpe2m146, 0.05%, 15 min (times of Table I r41)): 100.00% | Average Relative Light Units ([2]; LucPpe2m146, 0.05%, 72 min (head r41)): 0.012 rlu | Percent of Luminescence Remaining ([2]; LucPpe2m146, 0.05%, 72 min (times of Table I r41)): 65.68% | Average Relative Light Units ([2]; LucPpe2m146, 0.05%, 124 min (head r41)): 0.001 rlu | Percent of Luminescence Remaining ([2]; LucPpe2m146, 0.05%, 124 min (times of Table I r41)): 6.09% | Average Relative Light Units ([2]; LucPpe2m146, 0.05%, 190 min (head r41)): 0.006 rlu | Percent of Luminescence Remaining ([2]; LucPpe2m146, 0.05%, 190 min (times of Table I r41)): 35.06% | Average Relative Light Units ([2]; LucPpe2m146, 0.05%, 251 min (head r41)): 0.016 rlu | Percent of Luminescence Remaining ([2]; LucPpe2m146, 0.05%, 251 min (times of Table I r41)): 87.64%
